Laboratory results: patent publication US20170312293A1, “ANTIMICROBIAL WATER DISPERSIBLE COMPOSITION COMPRISING ZINC PYRITHIONE” (KOLON LIFE SCIENCE, INC., priority 2014, published 2017)
Counter-ions that a name gives are not always drawn.

How the values were obtained:
Escherichia coli = test: Challenge test (antibiotic activity) against E. coli; type: cell-based; details: day on which all strains completely died; inoculum 1.0×10^6 cells/ml, 37° C., sampling days 1, 2, 3, 7; sample without zinc pyrithione, pH 5.5 to 9.0
Procedure: (§1) Respective samples were inoculated with three kinds of bacteria and two kinds of fungus and cultured for 7 days in order to measure antibiotic activity. On the first, second, third and seventh days, sampling was conducted, the sample was spread on a solid medium and antibiotic activity was checked. Strains used to measure antibiotic activity were Escherichia coli, Staphylococcus aureus, Pseudomonas aeruginosa for bacteria, and Candida albicans and Aspergillus niger for fungus. Regarding the media used respectively for the strains, TSA (tryptic soy agar) and NB (nutrient broth) were used for the three types of bacteria, and SDA (Sabouraud dextrose agar) and YM (yeast extract and malt extract) were used for Candida albicans (C. albicans), and SDA (Sabouraud dextrose agar) and MD (malt extract and dextrose) were used for Aspergillus niger (A. niger).
(§2) Antibiotic activity was evaluated based on the day on which all strains completely died, rather than lived and grew in the sample spread on the solid medium. First day death was considered to be excellent, second day death was considered to be good, third day death was considered to be medium, seventh day death was considered to be bad and no death until the seventh day was considered to be extremely bad.
(§3) A more detailed test method is as follows. […] 50 g of an aqueous dispersion supplemented with a suitable concentration of antibiotic agent was added to the container to prepare a sample. In consideration of the test method, in order to test zinc pyrithione having antibiotic activity, antibiotic activity of zinc pyrithione was preferably removed using a neutralization agent, but water was inevitably used to adjust a predetermined volume without adding zinc pyrithione due to absence of a suitable neutralization agent.
(§4) The prepared sample was inoculated with 1.0×10^6 cells/ml of E. coli, S. aureus and P. aeruginosa, and with 1.0×10^5 cells/ml of C. albicans and A. niger. Then, E. coli, S. aureus and P. aeruginosa were cultured at 37° C., while C. albicans and A. niger were cultured at 30° C. At the point of times of 1, 2, 3 and 7 days after culture, […] of the sample was obtained and spread on a solid medium and E. coli, S. aureus and P. aeruginosa were then cultured at 37° C. for 1 day for, and C. albicans and A. niger were cultured at 30° C. for 2 days. Then, whether the strains were alive or dead was checked. The respective antiseptics were used with reference to optimal pH, dosage and MIC recommended by the company of manufacture, wherein the test pH conditions were pH 5.5 to 9.0 at which zinc pyrithione was stable.

Staphylococcus aureus = test: Challenge test (antibiotic activity) against S. aureus; type: cell-based; details: day on which all strains completely died; inoculum 1.0×10^6 cells/ml, 37° C., sampling days 1, 2, 3, 7; sample without zinc pyrithione, pH 5.5 to 9.0
Procedure: as §1, §2, §3, §4

Pseudomonas aeruginosa = test: Challenge test (antibiotic activity) against P. aeruginosa; type: cell-based; details: day on which all strains completely died; inoculum 1.0×10^6 cells/ml, 37° C., sampling days 1, 2, 3, 7; sample without zinc pyrithione, pH 5.5 to 9.0
Procedure: as §1, §2, §3, §4

Candida albicans = test: Challenge test (antibiotic activity) against C. albicans; type: cell-based; details: day on which all strains completely died; inoculum 1.0×10^5 cells/ml, 30° C., sampling days 1, 2, 3, 7; sample without zinc pyrithione, pH 5.5 to 9.0
Procedure: as §1, §2, §3, §4

Aspergillus niger = test: Challenge test (antibiotic activity) against A. niger; type: cell-based; details: for Challenge test A. niger (antibiotic activity grade): day on which all strains completely died, inoculum 1.0×10^5 cells/ml, 30° C., sampling days 1, 2, 3, 7, sample without zinc pyrithione, pH 5.5 to 9.0
Procedure: as §1, §2, §3, §4

[1] = Stability of zinc pyrithione aqueous dispersion: layer separation degree via centrifugation, naked eye; type: physicochemical; details: zinc pyrithione aqueous dispersion including the antiseptic, layer separation degree (supernatant height / total height) via centrifugation
Procedure: (§5) First, a zinc pyrithione aqueous dispersion including an antiseptic which was identified to have antiseptic activity was prepared and then stored at room temperature (R.T.), at a temperature ranging from 10° C. to 20° C., or 60° C., and variation in physical properties related to stability and dispersibility were checked.
(§6) Variation in physical properties was determined depending on whether or not assay, viscosity, pH and particle size were changed, and variation in dispersibility was determined by checking layer separation degree using centrifugation and measuring dispersion stability using Turbiscan for detecting particle size variation and phase separation.
Stability was evaluated by checking a layer separation degree (production of supernatant) using centrifugation by the naked eye and was divided into grades based on the proportion of the height of the layer-separated supernatant with respect to the total height of the sample. With respect to the grades, layer separation degree (production of supernatant) of less than 5% was regarded as “high”, layer separation degree of 10% or less was regarded as “medium-high”, layer separation degree of 15% or less was regarded as “medium”, layer separation degree of 20% or less was regarded as “medium-low” and layer separation degree of higher than 20% was regarded as “low”.

[2] = Dispersion stability by Turbiscan (Turbiscan stability index); type: physicochemical; details: zinc pyrithione aqueous dispersion with the antiseptic stored at 60° C. for 2 weeks, lower = more stable, 0 = no variation
Procedure: as §5, §6
Meanwhile, from the result of determination of stability via separate testing of the zinc pyrithione aqueous dispersion composition using the Turbiscan, it could seen that the result obtained by storing at 60° C. for 2 weeks was similar to the result obtained by storing at room temperature for 3 months. Therefore, stability of the zinc pyrithione aqueous dispersion was compared based on stability index (Turbiscan stability index) associated with the result obtained by storing the test subject substances at 60° C. for 2 weeks.
In addition, the stability of conventionally used antiseptics was measured as Turbiscan-related stability and the result thus obtained is shown as a stability index in the following Table 2. […]

Compound	Challenge test E. coli (antibiotic activity grade) (Escherichia coli)	Challenge test S. aureus (antibiotic activity grade) (Staphylococcus aureus)	Challenge test P. aeruginosa (antibiotic activity grade) (Pseudomonas aeruginosa)	Challenge test C. albicans (antibiotic activity grade) (Candida albicans)	Challenge test A. niger (antibiotic activity grade) (Aspergillus niger)	Stability of zinc pyrithione aqueous dispersion [1]	Antibiotic activity to A. niger (Aspergillus niger; conclusion in words from the challenge test)	Stability index at 60° C. × 2 weeks [2]
Ethylhexyl glycerin	Good (second day death was considered to be good)	Good (second day death was considered to be good)	Extremely bad (no death until the seventh day was considered to be extremely bad)	Good (second day death was considered to be good)	Medium (third day death was considered to be medium)			
OCc1ccccc1 [Benzyl alcohol]						Medium-low (layer separation degree of 20% or less was regarded as “medium-low”)		
CCCCC(O)CO (stereo not shown) [1,2-hexanediol]						Medium (layer separation degree of 15% or less was regarded as “medium”)		
O=S([O-])[O-].[Na+].[Na+] [Sodium sulfite]	Good (second day death was considered to be good)	Good (second day death was considered to be good)	Good (second day death was considered to be good)		Good (second day death was considered to be good)	High (layer separation degree (production of supernatant) of less than 5% was regarded as “high”)		
Cc1ncc(C[n+]2csc(CCO)c2C)c(N)n1 [Thiamine dilauryl sulfate, thiamine dilauryl sulphate]	Good (second day death was considered to be good)	Excellent (First day death was considered to be excellent)	Good (second day death was considered to be good)	Good (second day death was considered to be good)	Bad (seventh day death was considered to be bad)		vulnerable	
CC1(C)C(=O)N(CO)C(=O)N1CO [DMDMH, dimethylol dimethylhydantoin, reference compound]	Excellent (First day death was considered to be excellent)	Excellent (First day death was considered to be excellent)	Excellent (First day death was considered to be excellent)	Excellent (First day death was considered to be excellent)	Excellent (First day death was considered to be excellent)	High (layer separation degree (production of supernatant) of less than 5% was regarded as “high”)		3.9
O=S([O-])S(=O)(=O)[O-].[Na+].[Na+] [Sodium metabisulfite]	Good (second day death was considered to be good)	Good (second day death was considered to be good)	Good (second day death was considered to be good)		Good (second day death was considered to be good)			
CCCCCCC(O)CO (stereo not shown) [1,2-octanediol]						Medium (layer separation degree of 15% or less was regarded as “medium”)		
O=C([O-])c1ccccc1.[Na+] [Sodium benzoate]	Good (second day death was considered to be good)	Good (second day death was considered to be good)	Good (second day death was considered to be good)		Good (second day death was considered to be good)			
Cn1sccc1=O [MIT, methylisothiazolinone, reference compound]	Excellent (First day death was considered to be excellent)	Excellent (First day death was considered to be excellent)	Excellent (First day death was considered to be excellent)	Excellent (First day death was considered to be excellent)	Excellent (First day death was considered to be excellent)	High (layer separation degree (production of supernatant) of less than 5% was regarded as “high”)		3.9
C/C=C/C=C/C(=O)[O-].[K+] [Potassium sorbate]	Good (second day death was considered to be good)	Good (second day death was considered to be good)	Good (second day death was considered to be good)		Good (second day death was considered to be good)			
O=C([O-])c1ccccc1O.[Na+] [Sodium salicylate]	Good (second day death was considered to be good)	Good (second day death was considered to be good)	Good (second day death was considered to be good)		Good (second day death was considered to be good)			
